Assay results reported in ChEMBL document CHEMBL5608161, “Identification of 4-(6-((2-methoxyphenyl)amino)pyrazin-2-yl)benzoic acids as CSNK2A inhibitors with antiviral activity and improved selectivity over PIM3” (Bioorg Med Chem Lett, 2024).
The source made the active and inactive calls. The calls are words filed in the database; no cut-off is given here.

Tests used:
cells = conditions: Homo sapiens, HEK293
Description: Inhibition of Nano Luc-fused CSNK2A (unknown origin) expressed in HEK293 cells using NanoGlo as substrate by NanoBRET In-cell target engagement assay

HEK293 = assay: Inhibition of Nano Luc-fused CSNK2A (unknown origin) expressed in HEK293 cells using NanoGlo as substrate at 10 uM by NanoBRET In-cell target engagement assay; assay type: cell-based; conditions: Homo sapiens
[1] = biological target: Serine/threonine-protein kinase pim-1 (Homo sapiens) (UniProt P11309); assay: Binding affinity to PIM1 (unknown origin) assessed as melting temperature by thermal shift assay
[2] = biological target: Death-associated protein kinase 3 (Homo sapiens) (UniProt O43293); assay: Binding affinity to DAPK3 (unknown origin) assessed as melting temperature by thermal shift assay
[3] = biological target: T1, Dual specificity tyrosine-phosphorylation-regulated kinase 2 (Homo sapiens) (UniProt Q92630); assay: Binding affinity to DYRK2 (unknown origin) assessed as melting temperature by thermal shift assay
T1 sequence (whole entry): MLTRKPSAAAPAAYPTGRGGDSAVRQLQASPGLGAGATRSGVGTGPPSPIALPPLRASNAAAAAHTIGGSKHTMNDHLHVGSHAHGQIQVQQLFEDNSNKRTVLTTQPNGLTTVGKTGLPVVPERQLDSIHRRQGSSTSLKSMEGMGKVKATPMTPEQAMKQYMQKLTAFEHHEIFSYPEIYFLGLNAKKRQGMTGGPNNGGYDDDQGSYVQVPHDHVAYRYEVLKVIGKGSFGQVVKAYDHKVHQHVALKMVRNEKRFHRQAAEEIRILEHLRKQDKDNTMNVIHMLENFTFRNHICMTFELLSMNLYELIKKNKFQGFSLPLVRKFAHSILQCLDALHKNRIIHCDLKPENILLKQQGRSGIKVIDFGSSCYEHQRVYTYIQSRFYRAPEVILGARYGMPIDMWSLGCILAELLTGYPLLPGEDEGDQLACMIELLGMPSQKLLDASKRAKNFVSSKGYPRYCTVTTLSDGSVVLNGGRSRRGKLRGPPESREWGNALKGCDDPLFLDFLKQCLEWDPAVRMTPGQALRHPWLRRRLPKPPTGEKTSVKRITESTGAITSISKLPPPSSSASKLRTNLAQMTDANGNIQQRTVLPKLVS

[4] = biological target: BMP-2-inducible protein kinase (Homo sapiens) (UniProt Q9NSY1); assay: Binding affinity to BIKE (unknown origin) assessed as melting temperature by thermal shift assay
[5] = biological target: T2, Mitogen-activated protein kinase 15 (Homo sapiens) (UniProt Q8TD08); assay: Binding affinity to MAPK15 (unknown origin) assessed as melting temperature by thermal shift assay
T2 sequence (whole entry): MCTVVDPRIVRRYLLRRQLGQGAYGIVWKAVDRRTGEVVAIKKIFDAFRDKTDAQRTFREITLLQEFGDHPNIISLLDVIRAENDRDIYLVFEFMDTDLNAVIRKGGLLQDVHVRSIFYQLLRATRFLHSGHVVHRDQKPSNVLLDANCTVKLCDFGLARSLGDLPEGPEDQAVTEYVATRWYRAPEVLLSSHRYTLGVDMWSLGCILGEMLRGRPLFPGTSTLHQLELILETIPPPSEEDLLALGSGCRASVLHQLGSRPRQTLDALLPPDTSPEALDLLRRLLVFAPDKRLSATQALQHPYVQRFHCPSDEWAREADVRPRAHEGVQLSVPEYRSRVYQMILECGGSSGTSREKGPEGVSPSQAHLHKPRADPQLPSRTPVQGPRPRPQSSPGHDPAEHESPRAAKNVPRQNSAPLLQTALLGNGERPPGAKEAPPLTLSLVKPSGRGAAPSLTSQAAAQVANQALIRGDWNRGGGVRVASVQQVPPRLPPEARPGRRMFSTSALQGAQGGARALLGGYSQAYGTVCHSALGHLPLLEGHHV

Murine hepatitis virus = assay: microbe, parasite or virus in culture; conditions: Murine coronavirus, DB
Description: Antiviral activity against MHV expressing nLuc infected in human DB cells assessed as inhibition of viral replication

Chain of Death-associated protein kinase 3 (Homo sapiens) (O43293 whole entry, looked up): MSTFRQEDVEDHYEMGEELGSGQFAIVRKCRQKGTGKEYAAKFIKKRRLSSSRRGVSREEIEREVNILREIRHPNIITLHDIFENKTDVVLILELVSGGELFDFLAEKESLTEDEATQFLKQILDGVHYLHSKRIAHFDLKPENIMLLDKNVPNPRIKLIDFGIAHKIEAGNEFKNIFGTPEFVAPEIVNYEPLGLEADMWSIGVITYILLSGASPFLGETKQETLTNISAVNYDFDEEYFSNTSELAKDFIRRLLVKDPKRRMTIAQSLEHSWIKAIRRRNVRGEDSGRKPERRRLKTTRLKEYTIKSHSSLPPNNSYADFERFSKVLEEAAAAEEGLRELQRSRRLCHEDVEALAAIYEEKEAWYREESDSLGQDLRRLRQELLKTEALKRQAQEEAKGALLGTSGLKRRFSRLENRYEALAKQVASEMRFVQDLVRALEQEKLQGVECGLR
Chain of Serine/threonine-protein kinase pim-1 (Homo sapiens) (P11309 whole entry, looked up): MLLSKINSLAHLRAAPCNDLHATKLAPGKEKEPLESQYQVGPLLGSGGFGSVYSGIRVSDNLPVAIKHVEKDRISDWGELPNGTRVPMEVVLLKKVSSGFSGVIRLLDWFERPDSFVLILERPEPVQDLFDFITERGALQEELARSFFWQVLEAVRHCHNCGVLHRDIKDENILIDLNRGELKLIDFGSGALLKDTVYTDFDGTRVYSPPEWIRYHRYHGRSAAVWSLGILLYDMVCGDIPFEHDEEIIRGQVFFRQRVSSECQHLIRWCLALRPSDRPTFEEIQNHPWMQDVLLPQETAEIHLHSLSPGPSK
Chain of BMP-2-inducible protein kinase (Homo sapiens) (Q9NSY1 whole entry, looked up): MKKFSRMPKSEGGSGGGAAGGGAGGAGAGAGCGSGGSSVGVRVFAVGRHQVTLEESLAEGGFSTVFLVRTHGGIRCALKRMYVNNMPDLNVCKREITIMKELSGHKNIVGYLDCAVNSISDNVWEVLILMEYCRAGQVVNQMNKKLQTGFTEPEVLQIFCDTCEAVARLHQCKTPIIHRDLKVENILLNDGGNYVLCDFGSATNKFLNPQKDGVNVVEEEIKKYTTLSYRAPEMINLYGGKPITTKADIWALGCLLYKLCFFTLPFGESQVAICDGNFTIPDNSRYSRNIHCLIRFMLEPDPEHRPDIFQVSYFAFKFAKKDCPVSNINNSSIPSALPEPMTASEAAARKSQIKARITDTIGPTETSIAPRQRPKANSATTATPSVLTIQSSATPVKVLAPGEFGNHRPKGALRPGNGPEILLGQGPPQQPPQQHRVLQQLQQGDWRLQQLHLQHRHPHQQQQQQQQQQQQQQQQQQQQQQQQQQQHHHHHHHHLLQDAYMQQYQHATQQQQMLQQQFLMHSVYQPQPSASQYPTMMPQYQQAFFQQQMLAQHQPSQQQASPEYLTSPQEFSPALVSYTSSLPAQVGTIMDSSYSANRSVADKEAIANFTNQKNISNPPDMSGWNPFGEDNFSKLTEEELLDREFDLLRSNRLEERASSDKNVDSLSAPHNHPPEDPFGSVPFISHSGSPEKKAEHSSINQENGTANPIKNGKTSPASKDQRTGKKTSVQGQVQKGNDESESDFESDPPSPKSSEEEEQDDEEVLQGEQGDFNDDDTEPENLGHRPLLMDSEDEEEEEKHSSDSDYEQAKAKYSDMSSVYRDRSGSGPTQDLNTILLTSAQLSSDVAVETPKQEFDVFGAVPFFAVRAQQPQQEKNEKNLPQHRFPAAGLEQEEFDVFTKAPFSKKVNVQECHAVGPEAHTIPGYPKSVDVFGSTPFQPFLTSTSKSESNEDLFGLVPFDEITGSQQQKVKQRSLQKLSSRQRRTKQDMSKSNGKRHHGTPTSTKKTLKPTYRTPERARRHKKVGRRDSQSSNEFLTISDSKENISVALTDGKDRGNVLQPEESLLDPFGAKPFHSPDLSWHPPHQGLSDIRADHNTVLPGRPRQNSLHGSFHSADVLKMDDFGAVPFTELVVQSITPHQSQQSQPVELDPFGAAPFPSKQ

In the case of `O=C(O)c1ccc(-c2cncc(-n3ncc4ccc(NC5CCCC5)cc43)n2)cc1`, the IC50 (cells) is reported as 2200 nM.
With `CC(C)Nc1ccc2cnn(-c3cncc(-c4ccc(S(N)(=O)=O)cc4)n3)c2c1` the inhibition (HEK293) was “inactive”.
With `COc1ccc(OC(C)C)cc1Nc1cncc(-c2ccc(C(=O)O)cc2)n1` the Tm [1] was > 9 °C, the Tm [2] was > 9 °C and the Tm [3] was > 9 °C. The Tm [4] was > 9 °C and the Tm [5] was > 9 °C.
`CC(C)Nc1ccc2cnn(-c3cncc(-c4ccc(C(=O)O)c(Cl)c4)n3)c2c1` gave an IC50 (cells) of 260 nM.
In the case of `COc1cc(-c2cncc(-n3ncc4ccc(NC(C)C)cc43)n2)ccc1C(=O)O`, the inhibition (HEK293) is reported as “inactive”.
`O=C(O)c1ccc(-c2cncc(-n3ncc4ccc(NCCN5CCOCC5)cc43)n2)cc1` showed an IC50 (cells) of 2600 nM.
With `CC(C)Nc1ccc2cnn(-c3cncc(-c4ccc(C(N)=O)cc4)n3)c2c1` the inhibition (HEK293) was “inactive”.
Compound `CC(C)C(=O)OC[C@H]1O[C@@H](n2cc/c(=N\O)[nH]c2=O)[C@H](O)[C@@H]1O` [MOLNUPIRAVIR] has an IC50 (Murine hepatitis virus) of 1400 nM.
With `CC(=O)Nc1ccc2cnn(-c3cncc(-c4ccc(C(=O)O)cc4)n3)c2c1` the IC50 (cells) was 4020 nM.
